Test results published in patent US10174067B2, “Type of cytidine derivative and application thereof” (priority 2014, dated 2019).
Marks after values point to notes of the source that are not given here.

Experiments:
ICR mice = test: in vivo; details: female ICR mice; single-dose ip
How it was run: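 Female SPF ICR mice received a single ip dose in ethanol/Cremophor EL/saline (5:5:90), with dose lowered after deaths and raised otherwise. MTD defined as dose causing no death, no >10% weight loss versus Day 0 and no significant side effects; daily weights and twice-daily clinical observation over 7-14 days.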

[1] = tested on: HCT-116 colon cancer xenografts; test: Tumor growth inhibition of HCT-116 colon cancer xenografts in tumor-bearing nude mice (tumor volume, TGI %, RTV, T/C %); type: in vivo, Balb/c Nude mice; details: for T/C % (relative tumor proliferation rate): single-dose intraperitoneal, dosage mg/kg: G3, G4, G8 350, G5, G9 325, G6 300, G7 250;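 as to T/C % (relative tumor proliferation rate): control C is the vehicle-treated model control group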
How it was run: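 Nude mice inoculated with HCT-116 cells (about 3×10^7 cells/mL in serum-free medium). Tumor diameter measured three times weekly and volume computed as V=3/4π(D/2)^3. Activity expressed as TGI (%) and T/C (%) from relative tumor volume Vt/V0, with V0 taken at grouping and dosing start; P<0.05 significant.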

[2] = How it was run: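 Female SPF Balb/c nude mice bearing subcutaneous HCT-116 xenografts (3×10^6 cells, right hind limb), grouped at 60–150 mm^3, 6 per group; vehicle ethanol/Cremophor EL/saline 5:5:90. Body weight thrice weekly; tumours excised and weighed at sacrifice; Mean±SEM, unpaired t-test, P<0.05.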
[3] = Day 0, G3-G9 groups, single IP dose, Mean±SEM
[4] = Day 4, G3-G9 groups, single IP dose, Mean±SEM
[5] = Day 6, G3-G9 groups, single IP dose, Mean±SEM
[6] = Day 8, G3-G9 groups, single IP dose, Mean±SEM
[7] = Day 11, G3-G9 groups, single IP dose, Mean±SEM
[8] = Day 13, G3-G9 groups, single IP dose, Mean±SEM
[9] = Day 15, G3-G9 groups, single IP dose, Mean±SEM
[10] = Day 18, G3-G9 groups, single IP dose, Mean±SEM
[11] = Day 20, G3-G9 groups, single IP dose, Mean±SEM
[12] = Day 22, G3-G9 groups, single IP dose, Mean±SEM

O=C(Nc1nc(=O)n([C@@H]2O[C@H](CO)[C@@H](O)C2(F)F)cc1Br)OCc1ccccc1 [Compound G7, 5-Br-4-N-(carboxybenzyl)-2′-deoxy-2′,2′-difluorocytidine]
dose that could be tolerated (maximum tolerated dose, MTD) (ICR mice): 200 mg/kg
Day 0 (RTV) [1, 3]: 1.00 ± 0.00
Tumor volume, Day 0 [1, 3]: 133.56 ± 10.23 mm^3
T/C % (relative tumor proliferation rate) ([1]; Day 0): 0.00%
Day 4 (TGI %) ([1]; Day 4, G3-G9 groups, single IP dose): 53.12%
Day 4 (RTV) [1, 4]: 0.92 ± 0.08
Tumor volume, Day 4 [1, 4]: 124.90 ± 18.89* mm^3
T/C % (relative tumor proliferation rate) ([1]; Day 4): 48.99%
Day 6 (TGI %) ([1]; Day 6, G3-G9 groups, single IP dose): 78.40%
Day 6 (RTV) [1, 5]: 0.66 ± 0.12
Tumor volume, Day 6 [1, 5]: 91.30 ± 21.79** mm^3
T/C % (relative tumor proliferation rate) ([1]; Day 6): 22.02%
Day 8 (TGI %) ([1]; Day 8, G3-G9 groups, single IP dose): 82.62%
Day 8 (RTV) [1, 6]: 0.66 ± 0.12
Tumor volume, Day 8 [1, 6]: 91.30 ± 21.79*** mm^3
T/C % (relative tumor proliferation rate) ([1]; Day 8): 17.67%
tumor inhibition effect ([1]; Day 8 to Day 13 after single-dose intraperitoneal administration): good tumor inhibition effect
Day 11 (TGI %) ([1]; Day 11, G3-G9 groups, single IP dose): 81.27%
Day 11 (RTV) [1, 7]: 1.10 ± 0.23
Tumor volume, Day 11 [1, 7]: 150.60 ± 38.77** mm^3
T/C % (relative tumor proliferation rate) ([1]; Day 11): 18.54%
Day 13 (TGI %) ([1]; Day 13, G3-G9 groups, single IP dose): 80.80%
Day 13 (RTV) [1, 8]: 1.66 ± 0.10
Tumor volume, Day 13 [1, 8]: 222.86 ± 25.56** mm^3
T/C % (relative tumor proliferation rate) ([1]; Day 13): 19.33%
Day 15 (TGI %) ([1]; Day 15, G3-G9 groups, single IP dose): 72.81%
Day 15 (RTV) [1, 9]: 2.91 ± 0.35
Tumor volume, Day 15 [1, 9]: 384.06 ± 36.79* mm^3
T/C % (relative tumor proliferation rate) ([1]; Day 15): 27.80%
Day 18 (TGI %) ([1]; Day 18, G3-G9 groups, single IP dose): 65.62%
Day 18 (RTV) [1, 10]: 4.86 ± 0.65
Tumor volume, Day 18 [1, 10]: 636.39 ± 30.26* mm^3
T/C % (relative tumor proliferation rate) ([1]; Day 18): 35.32%
Day 20 (TGI %) ([1]; Day 20, G3-G9 groups, single IP dose): 51.28%
Day 20 (RTV) [1, 11]: 7.99 ± 1.70
Tumor volume, Day 20 [1, 11]: 1032.60 ± 127.82 mm^3
T/C % (relative tumor proliferation rate) ([1]; Day 20): 50.40%
Day 22 (TGI %) ([1]; Day 22, G3-G9 groups, single IP dose): 44.07%
Day 22 (RTV) [1, 12]: 11.40 ± 2.93
Tumor volume, Day 22 [1, 12]: 1462.80 ± 246.74 mm^3
T/C % on Day 22 ([1]; Day 22, G4 350 mg/kg, G5 325 mg/kg, G7 250 mg/kg, single IP): 58.62%
T/C % (relative tumor proliferation rate) ([1]; Day 22): 58.62%
relative tumor volume compared with the model control group ([1]; G4 and G5 Day 4 to Day 18, G7 Day 4 to Day 15 (p<0.05-0.01), G9 only Day 4 (p<0.05)): reduced significantly
maximum value of TGI % ([1]; day of maximum: G3 Day 8, G4 Day 11, G5 Day 11, G9 Day 4, G7 Day 8, single IP): 82.62%
minimum value of T/C % ([1]; day of minimum: G4 Day 13, G5 Day 11, G7 Day 8, single IP): 17.67%
Weight change rate, Day 0 [2, 3]: 0.00 ± 0.00%
Weight of mice, Day 0 [2, 3]: 21.63 ± 1.17 g
weights of animals on Day 4 after administration ([2]; Day 4 (G7: Day 4 and Day 6), p<0.05): significantly reduced
Weight change rate, Day 4 [2, 4]: −12.28 ± 4.78 %
Weight of mice, Day 4 [2, 4]: 18.87 ± 0.09 g
weight loss rate on Day 4 after administration ([2]; Day 4, G4 350 mg/kg, G5 325 mg/kg, G7 250 mg/kg, single IP): 12.28±4.78%
Weight change rate, Day 6 [2, 5]: −4.39 ± 3.60 %
Weight of mice, Day 6 [2, 5]: 20.60 ± 0.32 g
weight loss rate on Day 6 after administration ([2]; Day 6, G7 250 mg/kg, single IP): 4.39±3.6%
Weight change rate, Day 8 [2, 6]: −1.24 ± 2.80%
Weight of mice, Day 8 [2, 6]: 21.30 ± 0.55 g
Weight change rate, Day 11 [2, 7]: 1.86 ± 3.24%
Weight of mice, Day 11 [2, 7]: 21.97 ± 0.59 g
Weight change rate, Day 13 [2, 8]: 5.62 ± 2.15%
Weight of mice, Day 13 [2, 8]: 22.80 ± 0.76 g
Weight change rate, Day 15 [2, 9]: 7.71 ± 1.47%
Weight of mice, Day 15 [2, 9]: 23.27 ± 0.93 g
Weight change rate, Day 18 [2, 10]: 6.51 ± 2.30%
Weight of mice, Day 18 [2, 10]: 23.00 ± 0.90 g
Weight change rate, Day 20 [2, 11]: 5.54 ± 2.07%
Weight of mice, Day 20 [2, 11]: 22.80 ± 1.00 g
Weight change rate, Day 22 [2, 12]: 4.65 ± 2.51%
Weight of mice, Day 22 [2, 12]: 22.60 ± 0.95 g
Day 22 Mortality ([2]; Day 22, single IP dose (mg/kg)): 0%
clinical symptoms ([2]; after single IP dose, compared with model control group): no significant differences in clinical symptoms
